Patent publication US7368461B2 (AstraZeneca AB, priority 2001, dated 2008)
“And” between values parts separate entries of the source, which are not always exact repeats. Identical values can stand only once.

How the values were obtained:
[1] = target: T1, human NK1 receptors (Homo sapiens, UniProt P25103); assay: Receptor binding assay with [3H]SP in membranes of MEL cells expressing cloned human NK1 receptors; conditions: cloned hNK1 in MEL cell membranes; for Ki: read-out: hNK1 (Ki expressed as -Log Molar) (converted)
T1 construct: expressed in transfected cells; host or cells: MEL cells (murine erythroleukemia), membranes
T1 sequence (P25103 whole entry): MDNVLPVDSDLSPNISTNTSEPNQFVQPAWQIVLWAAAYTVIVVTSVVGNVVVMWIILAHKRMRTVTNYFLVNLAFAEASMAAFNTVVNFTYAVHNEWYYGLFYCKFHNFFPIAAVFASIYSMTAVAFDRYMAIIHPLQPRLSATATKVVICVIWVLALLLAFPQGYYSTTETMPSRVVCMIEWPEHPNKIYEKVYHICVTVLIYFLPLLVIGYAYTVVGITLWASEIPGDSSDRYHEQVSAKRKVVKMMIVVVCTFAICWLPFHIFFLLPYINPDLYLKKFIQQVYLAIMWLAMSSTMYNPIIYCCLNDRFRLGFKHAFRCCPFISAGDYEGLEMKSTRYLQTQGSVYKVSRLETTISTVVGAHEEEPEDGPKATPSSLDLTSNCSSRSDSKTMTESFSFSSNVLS
Procedure: (§1) Preparation of Membranes from MEL Cells Transfected with Cloned Human NK1 or NK2 receptors:
(§2) The cloning of the human lung NK1 and NK2 receptors was achieved as described by Hopkins, et al., Biochem. Biophys. Res. Commun. 180: 1110-1117 (1991), and Graham, et al., Biochem. Biophys. Res. Commun. 177: 8-16 (1991). Heterologous expression and scale-up growth of MEL cells transfected with human tachykinin receptors was performed as described for NK2 receptors by Aharony, et al., Mol. Pharmacol. 45: 9-19, 1994.
(§3) Membranes from recombinant MEL cells expressing NK1 or NK2 receptors were prepared as described by Hopkins, et al., (1991). Briefly, cells were homogenized at 4° C. (Brinkman PT-20 Polytron, setting 3, with one 15 sec burst on ice), in a buffer consisting of 50 mM Tris-HCl (pH7.4), 5 mM KCl, 120 mM NaCl, 10 mM EDTA and containing several protease inhibitors (1 mM phenylmethylsulfonylfluoride; 0.1 mg/ml soybean trypsin inhibitor, and 1 mM iodoacetamide). The homogenate was centrifuged at 1200×g for 45 min at 4° C. to remove cell debris. The supernatant was centrifuged at 48,000×g for 45 min at 4° C. The pellet was resuspended with a glass-Teflon motorized homogenizer in 30 volumes of ice-cold 50 mM Tris-HCl (pH 7.4) buffer.
(§4) Ligand binding assays with [^3H]NKA in MEL cells expressing cloned NK2 receptors or [^3H]SP in MEL cells expressing cloned NK1 receptors, were conducted generally as described by Aharony, et al., Mol. Pharmacol. 45: 9-19, 1994, Aharony, et al., Neuropeptides 23: 121-130 (1992) and Aharony, et al., J. Pharmacol. Exp. Ther. 259: 146-155(1991). In brief, incubations were carried out in assay buffer containing membranes, test compounds, and [^3H] ligand (1.0-1.5 nM). In competition experiments, mixtures (0.315 mL) containing various concentrations of competing agents (agonists, antagonists, or vehicle), were incubated at 25° C. for 30 min., with or without 1 μM unlabeled homogenous ligand (NKA or SP), to define non-specific binding. Reactions were initiated by adding membranes (0.1-0.15 mg protein/final concentration) and were conducted in duplicate. Saturation and kinetic experiments were conducted in triplicate. Separation of receptor-bound and free ligand was accomplished by dilution with 1 mL of wash buffer (20 mM Tris-HCl, pH 7.5) followed immediately by vacuum filtration with a total volume of 10 mL of wash buffer (utilizing a Brandel Cell Harvester MB-48R with Whatman GF/B filters presoaked in 0.1% polyethylenimine).
(§5) The ability of compounds disclosed herein to inhibit the binding of [^3H] ligand is shown by the results disclosed in Table 1.

[2] = target: T2, human NK2 receptors (Homo sapiens, UniProt P21452); assay: Receptor binding assay with [3H]NKA in membranes of MEL cells expressing cloned human NK2 receptors; conditions: cloned hNK2 in MEL cell membranes; for Ki: read-out: hNK2 (Ki expressed as -Log Molar) (converted)
T2 construct: expressed in transfected cells; host or cells: MEL cells (murine erythroleukemia), membranes
T2 sequence (P21452 1-398): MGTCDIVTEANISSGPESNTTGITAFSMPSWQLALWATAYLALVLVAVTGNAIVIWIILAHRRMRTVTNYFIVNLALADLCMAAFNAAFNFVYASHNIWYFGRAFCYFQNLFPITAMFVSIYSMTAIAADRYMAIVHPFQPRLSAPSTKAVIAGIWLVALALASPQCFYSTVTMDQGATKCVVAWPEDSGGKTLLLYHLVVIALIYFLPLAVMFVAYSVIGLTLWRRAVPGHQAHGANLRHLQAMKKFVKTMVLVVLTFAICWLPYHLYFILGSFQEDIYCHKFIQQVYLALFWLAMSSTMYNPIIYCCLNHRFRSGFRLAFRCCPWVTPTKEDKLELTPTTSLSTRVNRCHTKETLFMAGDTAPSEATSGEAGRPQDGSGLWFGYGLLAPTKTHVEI
Procedure: as §1, §2, §3, §4, §5

[3] = tested on: BANK-induced bladder contraction; assay: BANK-induced bladder contraction in anesthetized guinea pigs; type: in vivo, guinea pig; conditions: for Inhibition of BANK-mediated GP bladder contraction (% Inhibition mediated by 52 nM/kg administered orally): anesthetized female guinea pigs, 52 nM/kg orally by gavage 1 hr before BANK 3 nmol/kg iv, mean ± S.E.M.
Procedure: BANK-Induced Bladder Contraction in Anesthetized Guinea Pigs:
Female guinea pigs (300-450 g) were anesthetized by intramuscular administration of ketamine/xylazine mixture (3/10 mg/kg, respectively). The jugular vein was catheterized and the distal end of the catheter connected to a syringe for administration of compound where appropriate. Subsequently, the bladder was exposed through a midline abdominal incision, the ureters tied with 4-0 silk suture approximately 2 cm above the bladder, and cut above the ligature to allow drainage from the kidneys. Cannula were passed through the proximal urethra and bladder sphincter into the bladder lumen. The bladder was manually emptied, infused with 0.3 mL saline, and the catheter attached to a Gould p23 ID pressure transducer for recording changes in bladder pressure. An equilibration period of approximately 15 min was allowed for stabilization of the animals following surgical preparation. Thiorphan (10 mg/kg iv) was administered 15 minutes before agonist exposure to inhibit neutral endopeptidase 3.4.24.11.
The response was allowed to decay during a 15 min equilibration period before intravenous administration of test compound ([…], 5% PEG 400-saline vehicle). An additional 15 min equilibration period elapsed before administration of an equivalent dose of BANK was repeated. Preliminary studies were performed to establish equivalence of bladder contractile responses to multiple administrations of BANK. Effects were calculated as the percentage difference between the response to BANK in the presence and absence of test compounds.
To establish the oral effect of test compounds, animals were administered the test compounds (52 nmol/kg, 5% PEG 400-saline vehicle) by gavage 1 hr before administration of BANK. This was followed by intravenous administration of BANK (3 nmol/kg). Bladder contraction occurring in the presence or absence of test compound was recorded as an increase in intravesical bladder pressure on a Grass 7D Polygraph and expressed as percent inhibition of the BANK-mediated effect. Duration of action studies were performed following oral administration of test compounds ([…], 5% PEG 400-saline vehicle) at different times prior to administration of BANK. Responses were calculated as the percentage difference between the response to BANK in the presence of test compound compared with sham-treated controls. For all studies, each animal was administered a single dose of test compound. Experimental results were expressed as the mean plus or minus the Standard Error of the Mean (±S.E.M) percentage change from basal level.
The ability of compounds disclosed herein to inhibit bladder contractions induced with BANK is shown by the results disclosed in Table 1.

Row | Structure (SMILES) | Ki [1] | Ki [2] | hNK1 (Ki expressed as -Log Molar) [1] | hNK2 (Ki expressed as -Log Molar) [2] | Inhibition of BANK-mediated GP bladder contraction (% Inhibition mediated by 52 nM/kg administered orally) [3] | inhibition at 10 µM ([1]; 10 μM) | increase in the bladder contraction induced by BANK ([3]; guinea pig, as shown in Table 1 (52 nM/kg orally))
1 | CCNC(=O)C1(N2CCCCC2=O)CCN(CC[C@H](CN(C)C(=O)c2ccccc2)c2ccc(Cl)c(Cl)c2)CC1 [Example 6] |  | 0.2 nM |  |  | −65 ± 58% | 84% | 
2 | CN(C[C@@H](CCN1CCC(N2CCCCC2=O)CC1)c1ccc(Cl)c(Cl)c1)C(=O)c1ccc(F)cc1 [Example 4, (S)—N-[2-(3,4-Dichlorophenyl)-4-[4-(2-oxo-piperidin-1-yl)piperidino]butyl]-N-methyl-4-fluorobenzamide] |  |  |  |  | −28 ± 45% |  | 28%

Now from value to compound, other results behind:

Row | Ki [1] | Ki [2] | hNK1 (Ki expressed as -Log Molar) [1] | hNK2 (Ki expressed as -Log Molar) [2] | Structure (SMILES) | Inhibition of BANK-mediated GP bladder contraction (% Inhibition mediated by 52 nM/kg administered orally) [3] | inhibition at 10 µM ([1]; 10 μM) | increase in the bladder contraction induced by BANK ([3]; guinea pig, as shown in Table 1 (52 nM/kg orally))
3 | 427 nM | 3.31 nM |  |  | CN(C[C@@H](CCN1CCC(N2CCCCC2=O)CC1)c1ccc(Cl)c(Cl)c1)C(=O)c1ccccc1 [Example 5, (S)—N-[2-(3,4-Dichlorophenyl)-4-[4-(2-oxo-piperidin-1-yl)piperidino]butyl]-N-methylbenzamide] |  |  | 
4 |  |  | 7.22 -Log Molar | 8.73 -Log Molar | CN(C[C@@H](CCN1CCC(N2CCCCC2=S)CC1)c1ccc(Cl)c(Cl)c1)C(=O)c1ccccc1 [Example 2, (S)—N-[2-(3,4-Dichlorophenyl)-4-[4-(2-thio-piperidin-1-yl)piperidino]butyl]-N-methylbenzamide] | 42 ± 13% |  | 
5 | 91.2 nM | 1.45 nM |  |  | CN(C[C@@H](CCN1CCC(N2CCCCC2=O)CC1)c1ccc(Cl)c(Cl)c1)C(=O)c1ccccc1F [Example 1, (S)—N-[2-(3,4-Dichloro-phenyl)-4-(2-oxo-[1,4′]bipiperidinyl-1′-yl)-butyl]-2-fluoro-N-methyl-benzamide] | 80% and 80 ± 6% |  | 
